Measured values: patent US6462066B2, “Method and composition for treatment of ischemic neuronal reperfusion injury” (University of South Florida, priority 1999, dated 2002)

What was measured:
[1] = Serum level of dantrolene in the patient of Example 2; assay type: in vivo, human; settings: Example 2 patient
Protocol: (§1) He is placed on intravenous dantrolene, 2 mg/kg body weight q 2 hourly×3 followed q 8 hourly. In addition, […] is placed on solumedrol, 250 mg q 6 hourly. […] visual acuity fields are recorded on a daily basis. On day 3 dantrolene treatment is changed from intravenous to oral 500 mg po tid. On day 4 color vision is restored and on day 5 all treatment is stopped.
The serum level of dantrolene is 14×10^−6 gm/mL on day 4, and 15×10^−6 gm/mL on day 2.

[2] = system: excitotoxic damage; settings: stated as known; cited from earlier work
[3] = Dantrolene treatment of the patient of Example 2 (post-operative bilateral ischemic optic neuropathy), visual acuity and visual fields; assay type: in vivo, human; settings: Example 2 patient
Protocol: Their past medical history is significant for an episode of hyperglycemia approximately 45 years previously. They have been a non-smoker for the last 20 years, and prior to that they were a heavy smoker.
The operation lasts for approximately 10 hours. They are under general anesthesia for the duration of the operation. The estimated blood loss is 2200 mL during the operation, of which 1200 mL is replaced via a cell saver, and an additional 2 units of blood is given along with crystalloids. Their blood pressure drops once during the operation to 89 mm Hg. Before the surgery they are able to read with glasses. […] Strong venous pulsations are seen at the optic disc of the left eye. A diagnosis of bilateral ischemic optic neuropathy is made.
as §1

[4] = Dantrolene treatment of the patient of Example 1 (post-operative bilateral ischemic optic neuropathy), visual acuity and visual fields; assay type: in vivo, human; settings: Example 1 patient
Protocol: A patient undergoes back surgery lasting 8 hours and, upon awakening after 16 hours, complains of not being able to see from their left eye. The surgery had lasted 8 hours, and 1 unit of blood had been lost. During surgery, their systolic blood pressure had dropped to 80 mm Hg. […] They are a contact lens wearer. previously having a corrected visual acuity of 20/20 bilaterally.
There is a relative afferent pupillary defect on the left. They have a sizeable loss of their right visual field, which is illustrated in FIGS. 2A and 2B. […] Both pupils are reactive, varying in diameter from 3.0 to 3.5 mm.
Their extra-ocular muscle movements, intraocular pressures, and anterior segment exam, are within normal limits. […] The right optic disc is of normal color. […] It is pulsatile, and each time a pulse occurs, it jumps away from the optic disc. This can be clearly seen with a 90 diopter lens and a portable Kowa slit lamp, or with a 20 diopter lens and a Keeler indirect opthalmoscope. The retina appears normal in both eyes. […] A clinical diagnosis of posterior ischemic optic neuropathy with resultant field defect and pending loss of vision in the right eye is also made. MRI of the optic nerves confirms these diagnoses. Bilateral swelling of the optic nerves is seen behind the optic discs. The swelling is more marked in the left optic nerve than in the right. MRI confirms that they have a swollen optic left nerve. A diagnosis of bilateral ischemic optic neuropathy is made: the blood supply to the left eye has been occluded, and the same process is occurring in the right eye. Just prior to discovering their loss of sight, their serum calcium is low, and the nurse administers intravenous calcium.
To prevent compression of the blood supply in the right eye, the patient is given high dosed pulsed steroids. However, excitotoxic damage of the retina from reperfusion injury is almost certain in the absence of the treatment of the present invention.
The patient is administered 2 gm solumedrol, and then 1 gm every 6 hours. Dantrolene is administered at 2 mg/kg every 2 hours for three treatments, and then 1 mg/kg every 8 hours.

serum level of dantrolene ([1]; day 2 (intravenous dantrolene)): 15×10^−6 gm/mL
serum level of dantrolene ([1]; day 4 (oral 500 mg po tid from day 3)): 14×10^−6 gm/mL
Structure (SMILES): O=C1CN(/N=C/c2ccc(-c3ccc([N+](=O)[O-])cc3)o2)C(O)=N1 [Dantrolene]
excitotoxic damage in an animal seizure model [2]: prevents excitotoxic damage
visual acuity with glasses ([3]; 16 hours postoperatively, intravenous dantrolene 2 mg/kg q 2 hourly x3 then q 8 hourly, with solumedrol, baseline no light perception in either eye): counting fingers OU in the superior visual fields
color vision ([3]; day 4): restored
vision of the left eye ([4]; 24 hours after initiation of treatment, baseline no perception of light): light perception
corrected visual acuity in the right eye ([4]; 24 hours later, dantrolene 2 mg/kg every 2 hours x3 then 1 mg/kg every 8 hours, with solumedrol, baseline uncorrected 20/70): 20/30
vision of the left eye ([4]; 72 hours after treatment): starts to perceive hand movement
uncorrected visual acuity in the right eye ([4]; by the fifth day, baseline 20/70): 20/50
inferior field loss ([4]; right eye, at the fifth day (lessens from 48 hours after starting treatment)): none
corrected visual acuity in the left eye at distance ([4]; two months after discharge): counting fingers
corrected visual acuity in the left eye at near distance ([4]; two months after discharge): 20/800
